# Laboratory results taken from PMC8621208, “Antiseptic 9-Meric Peptide with Potency against Carbapenem-Resistant Acinetobacter baumannii Infection” (International Journal of Molecular Sciences, 2021).
# Read-outs that look alike come from different tables or passages of the source. Where a SMILES comes first, the peptide text is derived from it. [ ]: non-standard residue; d: D form.
# Tests used:
# CRKP K2 = test: MIC, broth dilution; format: cell-based, carbapenem-resistant K. pneumoniae; details: read-out: Minimal Inhibitory Concentration (MIC)
# From the text: (§1) Escherichia coli KCTC 1682 was obtained from the Korean Collection for Type Cultures (KCTC) (Jeongeup-si, Korea), Acinetobacter baumannii KCCM 40203, Pseudomonas aeruginosa KCCM 11328 from the Korea Culture Center of Microorganisms (KCCM) (Seoul, Korea). Klebsiella pneumoniae NCCP 16054 were obtained from the National Culture Collection for Pathogens (NCCP) (Osong, Korea). Additionally, two carbapenem-resistant E. coli (CREC E1 and E2), 11 carbapenem-resistant A. baumannii (CRAB C0–C10) and two carbapenem-resistant K. pneumoniae (CRKP K1 and K2) were isolated from the patients, who presented symptoms and signs of infection at Korea University Anam Hospital (Seoul, Korea) (IRB registration no. 2020AN0157, 4 March 2021). CRAB C0–C10 have the OXA-23 gene with carbapenem-resistance.
# (§2) The minimum inhibitory concentrations (MIC) were determined using broth dilution method. Briefly, all the mentioned bacterial strains were grown overnight at 37 °C by Muller–Hinton (MH) media. […] After 16 h incubation, the bacterial growth was read at 600 nm using a SpectraMAX microplate reader (Molecular Devices, San Jose, CA, USA).
# CRKP K1 = test: MIC, broth dilution; format: cell-based, carbapenem-resistant K. pneumoniae; details: read-out: Minimal Inhibitory Concentration (MIC)
# From the text: as §1, §2
# CRAB C7 = test: MIC, broth dilution; format: cell-based, carbapenem-resistant A. baumannii; details: read-out: Minimal Inhibitory Concentration (MIC)
# From the text: as §1, §2
# CRAB C0 = test: MIC, broth dilution; format: cell-based, carbapenem-resistant A. baumannii; details: read-out: Minimal Inhibitory Concentration (MIC)
# From the text: as §1, §2
# CRAB C9 = test: MIC, broth dilution; format: cell-based, carbapenem-resistant A. baumannii; details: read-out: Minimal Inhibitory Concentration (MIC)
# From the text: as §1, §2
# CRAB C10 = test: MIC, broth dilution; format: cell-based, carbapenem-resistant A. baumannii; details: read-out: Minimal Inhibitory Concentration (MIC)
# From the text: as §1, §2
# CRAB C6 = test: MIC, broth dilution; format: cell-based, carbapenem-resistant A. baumannii; details: read-out: Minimal Inhibitory Concentration (MIC)
# From the text: as §1, §2
# CRAB C3 = test: MIC, broth dilution; format: cell-based, carbapenem-resistant A. baumannii; details: read-out: Minimal Inhibitory Concentration (MIC)
# From the text: as §1, §2
# CRAB C5 = test: MIC, broth dilution; format: cell-based, carbapenem-resistant A. baumannii; details: read-out: Minimal Inhibitory Concentration (MIC)
# From the text: as §1, §2
# CRAB C4 = test: MIC, broth dilution; format: cell-based, carbapenem-resistant A. baumannii; details: read-out: Minimal Inhibitory Concentration (MIC)
# From the text: as §1, §2
# CRAB C2 = test: MIC, broth dilution; format: cell-based, carbapenem-resistant A. baumannii; details: read-out: Minimal Inhibitory Concentration (MIC)
# From the text: as §1, §2
# [1] = tested on: human kidney (HK)-2 cells; test: Cytotoxicity, WST-8 assay; format: cell-based; details: 100 μM, 24 h
# Procedure: Figure 6 In vitro cytotoxicity of Pro9-3 and their analogues. (A) Dose-response curve represent the hemolytic activity of peptides against sheep red blood cell (sRBC). Concentration-dependent (0–100 μM) toxic effects induced by peptides on (B) RAW 264.7 murine macrophage cells and (C) human kidney (HK)-2 cells for 24 h. Melittin was used as a control. Statistical analysis was performed using two-way analysis of variance (ANOVA) with Dunnett’s comparison test. Values are expressed as mean ± SEM of three independent experiments. * p < 0.05, ** p < 0.01, *** p < 0.001, and ns, non-significant compared with the control.
# RAW 264.7 mouse macrophage cells and Human kidney (HK)-2 cells were obtained from Korean cell line bank (Seoul, Korea) and the cells were maintained in DMEM culture media (Thermo Fischer Scientific Inc., Waltham, MA, USA) supplemented with 10% fetal bovine serum, 1% penicillin/streptomycin at 37 °C in a humidified 5% CO2 incubator. The cytotoxicity of the peptides was analyzed using WST-8 cell proliferation assay (Biomax Co, Ltd., Seoul, Korea), and the experiment was performed according to the kit protocol. Briefly, cells (1 × 10^4) were seeded in 96-well plate and the peptides treatment (0–100 μM) were initiated at 80% confluency and then for 24 h. After incubation, WST-8 reagent was added and the change in absorbance was read at 450 nm against reagent blank, and values are expressed as percent cell survival.
# E. coli = format: cell-based, Escherichia coli; details: peptide pre-incubated 6 h at 37 °C
# Procedure: All the peptides at their MICs were pre-incubated with proteolytic enzymes such as trypsin and α-chymotrypsin (10,000:1; peptide: enzyme ratio) for 6 h at 37 °C. Then, 100 μL of peptide-protease cocktail was added to the 100 µL bacterial suspension (E. coli, A. baumannii and CRAB C0, 2 × 10^5 CFU/mL) and further incubated for 16 h at 37 °C. Bacterial suspension without peptide and protease served as negative control. The analysis was repeated at three times using independent experiments, and the degree of bacterial growth was measured at 600 nm using a microplate reader.
# P. aeruginosa = test: MIC, broth dilution; format: cell-based, Pseudomonas aeruginosa KCCM 11328; details: 16 h, MH media, read-out: Minimal Inhibitory Concentration (MIC)
# From the text: as §1, §2
# [2] = In vivo toxicity, serum AST, ALT, BUN; design: species or system ICR mice; details: mice, 1 and 5 mg/kg i.p., 24 h
# Procedure: Control mice received phosphate-buffered saline only and the treatment was performed for 24 h. (B) R-Pro9-3D prolonged the survival rate of mice infected with CRAB C0. […] In sepsis model, mice (5 mice per group) were treated with R-Pro9-3D (1 mg/kg) for 1 h and the antiseptic analyses were evaluated after CRAB C0 (6 × 10^6 CFU/mouse, 16 h) infection. (C) R-Pro9-3D restricted the bacterial entry in the lung, liver, and kidneys. The corresponding organ lysates were plated onto agar plates and the total no of bacterial colonies were scored. (D) R-Pro9-3D effectively normalized the endotoxin levels in CRAB C0-infected mice. (E–G) Effect of R-Pro9-3D on serum levels of AST, ALT and BUN. (H–K) R-Pro9-3D inhibited the production of inflammatory cytokines (TNF-α and IL-6) in the serum and lung lysates of CRAB C0-infected mice, as measured by enzyme-linked immunosorbent assay (ELISA). (L) Photomicrograph show the modulatory effect of R-Pro9-3D on neutrophil infiltration in the hematoxylin and eosin (H&E)-stained lung tissues (Magnification 20×, Scale bar 100 μm). […] Values are expressed as mean ± SEM (Five mice per group). […]
# The ICR mice (n = 5 per group) were intraperitoneally (i.p.) injected with R-Pro9-3D (1 mg and 5 mg/kg/day in PBS) and the serum levels of AST, ALT, and BUN levels were determined using a standard kit from Asan Pharmaceutical as described previously.
# A. baumannii = test: MIC, broth dilution; format: cell-based, Acinetobacter baumannii KCCM 40203; details: 16 h, MH media, read-out: Minimal Inhibitory Concentration (MIC)
# From the text: as §1, §2
smiles,measurement,setting,value
"CC[C@@H](C)[C@@H](NC(=O)[C@@H](Cc1c[nH]c2ccccc12)NC(=O)[C@@H](CCCNC(=N)N)NC(=O)[C@H](N)CCCNC(=N)N)C(=O)N[C@H](C)C(=O)N[C@H](CC(C)C)C(=O)N[C@H](Cc1c[nH]c2ccccc12)C(=O)N[C@H](CC(C)C)C(=O)N[C@H](CCCNC(=N)N)C(N)=O [R-Pro9-3D, rrwialwlr-NH2] (H-[dR][dR][dW][dI][dA][dL][dW][dL][dR]-NH2)",MIC,CRKP K2,8 µM
same,MIC,CRKP K1,16 µM
same,MIC,CRAB C7,4 µM
same,MIC,CRAB C0,4 µM
same,MIC,CRAB C9,4 µM
same,MIC,CRAB C10,4 µM
same,MIC,CRAB C6,4 µM
same,MIC,CRAB C3,8 µM
same,MIC,CRAB C5,4 µM
same,MIC,CRAB C4,4 µM
same,MIC,CRAB C2,4 µM
same,Toxicity in human kidney (HK)-2 cells,[1],9.6%
same,Minimal Inhibitory Concentration (MIC),E. coli; E. coli + Trypsin,8 µM
same,Minimal Inhibitory Concentration (MIC),E. coli; E. coli + α-Chymotrypsin,8 µM
same,MIC,P. aeruginosa,8 µM
same,"Serum levels of AST, ALT and BUN",[2],Neither dose of R-Pro9-3D elevated the levels of these enzymes
same,MIC,A. baumannii,4 µM
